Measurements published in ChEMBL document CHEMBL1201862, “PubChem BioAssay data set” (2004).
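Results reflect a 48-hour exposure of cells in 96-well plates to compound at five concentrations. Here, GI50 denotes the concentration required for 50% inhibition of growth.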 Activity calls are given as the source filed them. Cut-off read from the data, not from the text of the source: active = GI50 up to about 1.1 µM and inactive = higher.

Experiments:
Assay in all cases: DTP human tumour cell line panel, 48 h
HCC 2998 = tested on: HCC 2998
UO-31 = tested on: UO-31
K562 = tested on: K562
SK-MEL-5 = tested on: SK-MEL-5
SNB-19 = tested on: SNB-19
KM12 = tested on: KM12
SF-268 = tested on: SF-268
OVCAR-4 = tested on: OVCAR-4
SK-OV-3 = tested on: SK-OV-3
UACC-62 = tested on: UACC-62
MOLT-4 = tested on: MOLT-4
A549 = tested on: A549
NCI-H460 = tested on: NCI-H460
UACC-257 = tested on: UACC-257
SK-MEL-28 = tested on: SK-MEL-28
ACHN = tested on: ACHN
TK-10 = tested on: TK-10
NCI-H522 = tested on: NCI-H522
RPMI-8226 = tested on: RPMI-8226

Measured: GI50

O=C1C=CC(CC(=O)c2ccc3ccccc3c2)O1 (stereo unspecified)
inactive: HCC 2998 17.2 µM | UO-31 24.3 µM | K562 32.9 µM | SK-MEL-5 59.3 µM | SNB-19 32.7 µM | KM12 17.5 µM | SF-268 17.6 µM | OVCAR-4 24.9 µM | SK-OV-3 68.1 µM | UACC-62 18.8 µM | MOLT-4 21.7 µM | A549 61.9 µM | NCI-H460 24.2 µM | UACC-257 47.6 µM | SK-MEL-28 55.8 µM | ACHN 37.3 µM | TK-10 32.8 µM

CN(C)CCNC(=O)c1cccc2ncc(-c3ccccc3)nc12
inactive: HCC 2998 9.59 µM | UO-31 8.89 µM | K562 9.02 µM | SK-MEL-5 11.5 µM | SNB-19 17.1 µM | KM12 11.8 µM | SF-268 10.6 µM | NCI-H522 5.78 µM | OVCAR-4 8.77 µM | SK-OV-3 16.4 µM | UACC-62 13.8 µM | MOLT-4 2.52 µM | A549 6.9 µM | NCI-H460 4.41 µM | UACC-257 14.7 µM | SK-MEL-28 18.2 µM | ACHN 5.35 µM | TK-10 6.93 µM

CCC(=O)N1C(=S)SC[C@H]1C(=O)OC
inactive: HCC 2998 > 100 µM | UO-31 > 100 µM | K562 > 100 µM | SK-MEL-5 > 100 µM | SNB-19 > 100 µM | KM12 > 100 µM | SF-268 > 100 µM | NCI-H522 > 100 µM | OVCAR-4 > 100 µM | SK-OV-3 > 100 µM | UACC-62 > 100 µM | MOLT-4 > 100 µM | A549 > 100 µM | UACC-257 > 100 µM | SK-MEL-28 > 100 µM | ACHN > 100 µM | TK-10 > 100 µM

CN(/N=C/c1cccc2cccnc12)c1c([N+](=O)[O-])cc([N+](=O)[O-])cc1[N+](=O)[O-]
inactive: HCC 2998 > 100 µM | K562 3.56 µM | SK-MEL-5 64.9 µM | SNB-19 > 100 µM | KM12 25.2 µM | SF-268 > 100 µM | OVCAR-4 > 100 µM | SK-OV-3 > 100 µM | UACC-62 > 100 µM | MOLT-4 11.4 µM | A549 46.8 µM | NCI-H460 > 100 µM | UACC-257 > 100 µM | SK-MEL-28 > 100 µM | ACHN > 100 µM | TK-10 > 100 µM | RPMI-8226 > 100 µM

O=C1CCC(=O)C1=NNc1ccccc1
inactive: HCC 2998 > 100 µM | UO-31 > 100 µM | K562 > 100 µM | SK-MEL-5 80.4 µM | SNB-19 > 100 µM | KM12 > 100 µM | SF-268 > 100 µM | OVCAR-4 > 100 µM | SK-OV-3 > 100 µM | UACC-62 8.38 µM | MOLT-4 > 100 µM | A549 > 100 µM | NCI-H460 > 100 µM | UACC-257 > 100 µM | SK-MEL-28 > 100 µM | ACHN > 100 µM | TK-10 > 100 µM

NCCCCCCNCc1cccc2ccccc12
inactive: UO-31 53.5 µM | K562 19.8 µM | SK-MEL-5 90.8 µM | SNB-19 > 100 µM | KM12 99.8 µM | NCI-H522 83.6 µM | OVCAR-4 > 100 µM | SK-OV-3 > 100 µM | UACC-62 > 100 µM | MOLT-4 40.8 µM | A549 > 100 µM | NCI-H460 > 100 µM | UACC-257 46.3 µM | SK-MEL-28 65.2 µM | ACHN > 100 µM | TK-10 > 100 µM | RPMI-8226 > 100 µM

CCCCCCCCCCCCCCCC(=O)OCCOCCOCCOCc1ccccc1
inactive: SK-MEL-5 > 100 µM | SNB-19 63.8 µM | KM12 > 100 µM | SF-268 91 µM | OVCAR-4 > 100 µM | UACC-62 36.1 µM | A549 > 100 µM | NCI-H460 > 100 µM | UACC-257 > 100 µM | SK-MEL-28 > 100 µM | ACHN > 100 µM | TK-10 > 100 µM

CC1=N/C(=C\c2ccc(N)cc2)C(=O)N1Nc1nnc(NN2C(=O)/C(=C/c3ccc(N)cc3)N=C2C)c2ccccc12
inactive: K562 27.4 µM | SK-MEL-5 45.2 µM | SNB-19 33 µM | KM12 37.6 µM | SF-268 55 µM | NCI-H522 21.3 µM | OVCAR-4 33 µM | UACC-62 54.5 µM | MOLT-4 35.2 µM | A549 > 100 µM | NCI-H460 > 100 µM | UACC-257 > 100 µM | SK-MEL-28 > 100 µM | ACHN > 100 µM | RPMI-8226 26.4 µM

COc1ccc2cc1Oc1ccc(cc1)CC1c3cc(c(OC)cc3CCN1C)Oc1c3c(cc4c1C(C2)N(C)CC4)OCO3 (stereo unspecified)
inactive: HCC 2998 11.5 µM | K562 1.85 µM | SK-MEL-5 12.3 µM | SNB-19 17.6 µM | KM12 12.9 µM | SF-268 8.36 µM | NCI-H522 7.16 µM | OVCAR-4 4.58 µM | UACC-62 16.2 µM | MOLT-4 5.52 µM | A549 16 µM | NCI-H460 14.2 µM | SK-MEL-28 3.29 µM | ACHN 4.58 µM | TK-10 2.19 µM

O=C1c2cccc3c(Cl)ccc(c23)C(=O)N1CCCN1CCN(CCCN2C(=O)c3cccc4c(Cl)ccc(c34)C2=O)CC1
inactive: HCC 2998 53.3 µM | UO-31 > 100 µM | K562 86.1 µM | SK-MEL-5 > 100 µM | SNB-19 > 100 µM | KM12 > 100 µM | OVCAR-4 > 100 µM | SK-OV-3 > 100 µM | UACC-62 > 100 µM | MOLT-4 57.3 µM | A549 > 100 µM | NCI-H460 > 100 µM | UACC-257 > 100 µM | ACHN 81.8 µM | TK-10 > 100 µM | RPMI-8226 > 100 µM

COc1c(C)c(O)c2c(=O)cc(-c3ccccc3)oc2c1C
inactive: HCC 2998 > 100 µM | UO-31 > 100 µM | K562 > 100 µM | SK-MEL-5 > 100 µM | KM12 > 100 µM | SF-268 > 100 µM | NCI-H522 > 100 µM | OVCAR-4 > 100 µM | SK-OV-3 > 100 µM | UACC-62 > 100 µM | MOLT-4 > 100 µM | A549 > 100 µM | NCI-H460 > 100 µM | UACC-257 > 100 µM | SK-MEL-28 > 100 µM | ACHN > 100 µM | TK-10 > 100 µM

CCC1(c2ccncc2)CCC(=O)NC1=O (stereo unspecified) [ROGLETIMIDE]
inactive: HCC 2998 > 100 µM | UO-31 > 100 µM | K562 > 100 µM | SK-MEL-5 > 100 µM | SNB-19 > 100 µM | KM12 > 100 µM | SF-268 > 100 µM | OVCAR-4 > 100 µM | SK-OV-3 > 100 µM | UACC-62 > 100 µM | MOLT-4 > 100 µM | A549 > 100 µM | NCI-H460 > 100 µM | UACC-257 > 100 µM | SK-MEL-28 > 100 µM | ACHN > 100 µM | TK-10 > 100 µM | RPMI-8226 > 100 µM
